Assay results as given in patent US20110269763A1, “CRTH2 receptor ligands for medicinal uses” (7TM Pharma A/S, priority 2004, published 2011).
pIC50: −log10 of the molar value.

How the values were obtained:
[1] = target: T1, human CRTH2 (Homo sapiens, UniProt Q9Y5Y4, V204A); assay: Functional antagonist BRET assay on HEK293 cells stably expressing human CRTH2-Rluc and GFP2-β-arr2; assay type: cell-based; set-up: expressed in transfected cells; details: BRET, antagonist incubated 15 minutes prior to agonist; read-out: Antag. IC50
T1 sequence (Q9Y5Y4 1-395 V204A): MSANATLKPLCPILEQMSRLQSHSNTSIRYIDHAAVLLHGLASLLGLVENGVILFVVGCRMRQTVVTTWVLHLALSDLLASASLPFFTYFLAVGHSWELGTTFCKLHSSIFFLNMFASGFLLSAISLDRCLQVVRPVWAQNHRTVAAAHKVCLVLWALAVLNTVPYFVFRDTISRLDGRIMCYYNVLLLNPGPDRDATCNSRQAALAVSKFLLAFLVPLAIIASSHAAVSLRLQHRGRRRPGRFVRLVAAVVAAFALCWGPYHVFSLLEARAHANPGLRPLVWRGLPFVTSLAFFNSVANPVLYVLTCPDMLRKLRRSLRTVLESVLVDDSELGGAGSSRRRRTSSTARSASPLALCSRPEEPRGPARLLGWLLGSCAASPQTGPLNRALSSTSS
Text: (§1) Generation/origin of the cDNA Constructs. The coding sequence of the human CRTH2 receptor (genbank accession no NM_004778) was amplified by PCR from a human hippocampus cDNA library and inserted into the pcDNA3.1(+) expression vector (invitrogen) via 5′ HindIII and 3′ EcoRI. To generate a CRTH2-Renilla luciferase (CRTH2-Rluc) fusion protein, the CRTH2 coding sequence without a STOP codon and Rluc were amplified, fused in frame by PCR and subcloned into the pcDNA3.1(+)Zeo expression vector (invitrogen). Human β-arrestin2 (β-arr2) N-terminally tagged with GFP^2 (βarr2-GFP^2) and Renilla luciferase were purchased from BioSignal Packard Inc, (Montreal, Canada). The sequence identity of the construct was verified by restriction endonuclease digests and sequencing in both directions on an ABI Prism (Applied Biosystems, Foster City, Calif.).
(§2) Cell Culture and Transfection. COS-7 cells were grown in Dulbecco's modified Eagle's medium (DMEM) 1885 supplemented with 10% fetal bovine serum, 100 units/ml penicillin, […] streptomycin, and kept at 37° C. in a 10% CO2 atmosphere. HEK293 cells were maintained in Minimum Essential medium (MEM) supplemented with 10% (v/v) heat inactivated fetal calf serum (HIFCS), 2 mM Glutamax™-I, 1% non essential amino acids (NEAA), 1% sodium pyruvate and 10 μg/ml gentamicin. For binding experiments, COS7 cells were transiently transfected with the CRTH2 receptor using a calcium phosphate-DNA coprecipitation method with the addition of chloroquine (as described by Holst et al., 2001↓). To perform the functional Bioluminescence Resonance Energy Transfer (BRET) assays, a HEK293 cell clone stably expressing βarr2-GFP^2 and CRTH2-Rluc was generated (CRTH2-HEK293 cells).
BRET assay. Functional BRET assays were performed on HEK293 cells stably expressing human CRTH2-Rluc and GFP^2-β-arr2. Prior to their use in the BRET assay cells were detached and re-suspended in D-PBS with 1000 mg/L L-Glucose at a density of 2×10^6 cells/mL. DeepBlueC™ was diluted to 50 μM in D-PBS with 1000 mg/L L-Glucose (light sensitive). 100 μL of cell suspension was transferred to wells in a 96-well microplate (white OptiPlate) and placed in the Mithras LB 940 instrument (BERTHOLD TECHNOLOGIES, Bad Wildbad, Germany). 12 μL/well agonist was then injected by injector 1 and 10 μL/well DeepBlueC™ was injected simultaneously by injector 2. Five seconds after the injections the light output from the well was measured sequentially at 400 nm and 515 nm, and the BRET signal (mBRET ratio) was calculated by the ratio of the fluorescence emitted by GFP^2-β-arr2 (515 nm) over the light emitted by the receptor-Rluc (400 nm). Antagonists were added before placing the microplates into the Mithras LB 940 and allowed to incubate for 15 minutes prior to the addition of agonist and DeepBlueC™. Compounds were dissolved in DMSO and the final DMSO concentration was kept constant at 1% in the assay.
(§3) Curve analysis was performed with the GraphPadPrism software 3.0 (Graphpad Prism Inc., San Diego, USA) and IC50 values were calculated as a measure of the antagonistic potencies.

[2] = target: T1, human CRTH2; assay: Receptor binding assay: [3H]PGD2 competition binding on whole COS-7 cells transiently transfected with CRTH2 (also stable HEK293 cells); set-up: expressed in transfected cells; host or cells: COS-7 (transient, calcium phosphate); details: competition with 0.1 nM [3H]PGD2, whole cells, 3 h at 4° C.
Text: as §1, §2
Binding assay. 24 h after transfection COS-7 cells were seeded into 96 well plates at a density of 30.000 cells/well. Competition binding experiments on whole cells were then performed about 18-24 h later using 0.1 nM [^3H]PGD2 (NEN, 172 Ci/mmol) in a binding buffer consisting of HBSS (GIBCO) and 10 mM HEPES. Competing ligands were diluted in DMSO which was kept constant at 1% (v/v) of the final incubation volume. Total and nonspecific binding were determined in the absence and presence of 10 μM PGD2. Binding reactions were routinely conducted for 3 h at 4° C. and terminated by 2 washes (100 μl each) with ice cold binding buffer. Radioactivity was determined by liquid scintillation counting in a TOPCOUNTER (Packard) following over night incubation in Microscint 20. Stable HEK293 cells were seeded at a density of 30.000 cells/well 18-24 h prior to the binding assay which was performed essentially as described for COS7 cells above. Determinations were made in duplicates.
as §3

Compound	pIC50 [1]	pIC50 [2]
CCc1cc(Br)ccc1-n1cc(C(=O)c2cc(Br)ccc2OC(C)C(=O)O)cn1 (centres unmarked) [D46, 2-{4-Bromo-2-[1-(4-bromo-2-ethylphenyl)-1H-pyrazole-4-carbonyl]phenoxy}propionic acid]	> 6.30	> 6.30
CC(Oc1ccc(Br)cc1C(=O)c1cnn(-c2ccccc2Oc2ccccc2)c1)C(=O)O (centres unmarked) [D47, 2-{4-Bromo-2-[1-(2-phenoxyphenyl)-1H-pyrazole-4-carbonyl]phenoxy}propionic acid]	> 6.30	> 6.30
CCOc1ccccc1-n1cc(C(=O)c2cc(Br)ccc2OC(C)C(=O)O)cn1 (centres unmarked) [D48, 2-{4-Bromo-2-[1-(2-ethoxyphenyl)-1H-pyrazole-4-carbonyl]phenoxy}propionic acid]	> 6.30	> 6.30
CSc1ccccc1-n1cc(C(=O)c2cc(Br)ccc2OC(C)C(=O)O)cn1 (centres unmarked) [D49, 2-{4-Bromo-2-[1-(2-methylthio)-1H-pyrazole-4-carbonyl]phenoxy}propionic acid]	> 6.30	> 6.30
Cc1ccc(-n2cc(C(=O)c3cc(Br)ccc3OC(C)C(=O)O)cn2)c(Br)c1 (centres unmarked) [D50, 2-{4-Bromo-2-[1-(2-bromo-4-methylphenyl)-1H-pyrazole-4-carbonyl]phenoxy}propionic acid]	> 6.30	> 6.30
O=C(O)COc1ccc(Br)cc1C(=O)c1cnn(-c2ccccc2OC(F)(F)F)c1 [D52, {4-Bromo-2-[1-(2-trifluoromethoxyphenyl)-1H-pyrazole-4-carbonyl]phenoxy}acetic acid]	> 6.30	> 6.30
Cc1ccc(-n2cc(C(=O)c3cc(Br)ccc3OC(C)C(=O)O)cn2)c(C)c1 (centres unmarked) [D55, 2-{4-Bromo-2-[1-(2,4-dimethylphenyl)-1H-pyrazole-4-carbonyl]phenoxy}propionic acid]	> 6.30	> 6.30
CC(Oc1ccc(Br)cc1C(=O)c1cnn(Cc2ccccc2)c1)C(=O)O (centres unmarked) [D57, 2-[2-(1-Benzyl-1H-pyrazole-4-carbonyl)-4-bromophenoxy]propionic acid]	> 6.30	> 6.30
Cc1cc(Cl)ccc1-n1cc(C(=O)c2cc(Br)ccc2OC(C)C(=O)O)cn1 (centres unmarked) [D62, 2-{4-Bromo-2-[1-(4-chloro-2-methylphenyl)-1H-pyrazole-4-carbonyl]phenoxy}propionic acid]	> 6.30	> 6.30
COc1ccccc1-n1cc(C(=O)c2cc(Br)ccc2OC(C)C(=O)O)cn1 (centres unmarked) [D65, 2-{4-Bromo-2-[1-(2-methoxyphenyl)-1H-pyrazole-4-carbonyl]phenoxy}propionic acid]	> 6.30	> 6.30
Nc1ccc(OCC(=O)O)c(C(=O)c2cnn(-c3ccccc3)c2)c1 [D66, [4-Amino-2-(1-phenyl-1H-pyrazole-4-carbonyl)phenoxy]acetic acid]	> 6.30	5.30 to 6.30
CC(Oc1ccc(Br)cc1C(=O)c1cnn(-c2c(Cl)cc(Cl)cc2Cl)c1)C(=O)O (centres unmarked) [D68, 2-{4-Bromo-2-[1-(2,4,6-trichlorophenyl)-1H-pyrazole-4-carbonyl]phenoxy}propionic acid]	> 6.30	> 6.30
CC(Oc1ccc(Br)cc1C(=O)c1cnn(-c2ccc(Br)cc2Br)c1)C(=O)O (centres unmarked) [D69, 2-{4-Bromo-2-[1-(2,4-dibromophenyl)-1H-pyrazole-4-carbonyl]phenoxy}propionic acid]	> 6.30	> 6.30

Results, then the compound that gave them:

pIC50 [1]	pIC50 [2]	Compound
> 6.30	> 6.30	CSc1ccccc1-n1cc(C(=O)c2cc(Br)ccc2OCC(=O)O)cn1 [D44, {4-Bromo-2-[1-(2-methylthiophenyl)-1H-pyrazole-4-carbonyl]phenoxy}acetic acid]
> 6.30	> 6.30	Cc1ccc(-n2cc(C(=O)c3cc(Br)ccc3OCC(=O)O)cn2)c(Br)c1 [D45, {4-Bromo-2-[1-(2-bromo-4-methylphenyl)-1H-pyrazole-4-carbonyl]phenoxy}acetic acid]
> 6.30	> 6.30	CC(Oc1ccc(Br)cc1C(=O)c1cnn(-c2ccc(Cl)cc2Cl)c1)C(=O)O (centres unmarked) [D51, 2-{4-Bromo-2-[1-(2,4-dichlorophenyl)-1H-pyrazole-4-carbonyl]phenoxy}propionic acid]
> 6.30	> 6.30	CCc1ccc(OCC(=O)O)c(C(=O)c2cnn(-c3c(Cl)cccc3Cl)c2)c1 [D53, {2-[1-(2,6-Dichlorophenyl)-1H-pyrazole-4-carbonyl]-4-ethylphenoxy}acetic acid]
> 6.30	> 6.30	Cc1ccc(-n2cc(C(=O)c3cc(Br)ccc3OCC(=O)O)cn2)c(C)c1 [D54, {4-Bromo-2-[1-(2,4-dimethylphenyl)-1H-pyrazole-4-carbonyl]phenoxy}acetic acid]
> 6.30	> 6.30	O=C(O)COc1ccc(Br)cc1C(=O)c1cnn(Cc2ccccc2)c1 [D56, [2-(1-Benzyl-1H-pyrazole-4-carbonyl)-4-bromophenoxy]acetic acid]
> 6.30	> 6.30	Cc1cc(Cl)ccc1-n1cc(C(=O)c2cc(Br)ccc2OCC(=O)O)cn1 [D58, {4-Bromo-2-[1-(4-chloro-2-methylphenyl)-1H-pyrazole-4-carbonyl]phenoxy}acetic acid]
> 6.30	> 6.30	O=C(O)COc1ccc(Br)cc1C(=O)c1cnn(-c2cc(Cl)ccc2Cl)c1 [D59, {4-Bromo-2-[1-(2,5-dichlorophenyl)-1H-pyrazole-4-carbonyl]phenoxy}acetic acid]
> 6.30	> 6.30	COc1ccccc1-n1cc(C(=O)c2cc(Br)ccc2OCC(=O)O)cn1 [D60, {4-Bromo-2-[1-(2-methoxyphenyl)-1H-pyrazole-4-carbonyl]phenoxy}acetic acid]
> 6.30	> 6.30	O=C(O)COc1ccc(Br)cc1C(=O)c1cnn(-c2ccc(Cl)c(Cl)c2)c1 [D61, {4-Bromo-2-[1-(3,4-dichlorophenyl)-1H-pyrazole-4-carbonyl]phenoxy}acetic acid]
> 6.30	> 6.30	CC(Oc1ccc(Br)cc1C(=O)c1cnn(-c2cc(Cl)ccc2Cl)c1)C(=O)O (centres unmarked) [D63, 2-{4-Bromo-2-[1-(2,5-dichlorophenyl)-1H-pyrazole-4-carbonyl]phenoxy}propionic acid]
> 6.30	> 6.30	CC(Oc1ccc(Br)cc1C(=O)c1cnn(-c2ccc(Cl)c(Cl)c2)c1)C(=O)O (centres unmarked) [D64, 2-{4-Bromo-2-[1-(3,4-dichloro-phenyl)-1H-pyrazole-4-carbonyl]phenoxy}propionic acid]
